Key:
A2780CP cells [1] = test: MTT cell survival assay, CDDP-resistant A2780CP cells; conditions: increasing amounts of CDDP alone, MTT 24 hr
Protocol: (§1) CDDP-resistant ovarian cancer cell lines A2780CP and C-13 were treated with CDDP at indicated concentrations alone, or in combination with 10 μM API-2. Cell survival was determined 24 hr later by MTT assay.
API-2 was further investigated to determine whether it can overcome CDDP resistance by blocking Akt signaling pathways. A2780CP and C-13 cells were treated with increasing amounts of CDDP alone or in combination with 10 μM API-2.

C-13 cells [2] = test: MTT cell survival assay, CDDP-resistant C-13 cells; conditions: C-13, increasing amounts of CDDP alone, MTT 24 hr
Protocol: as §1
A2780CP and C-13 cells were treated with increasing amounts of CDDP alone or in combination with 10 μM API-2.

Akt phosphorylation = test: Western blot of MCF-7 lysates for phosphorylated Akt, S6, p70-S6K; type: cell-based, human
Protocol: (A) OVCAR-3 human ovarian cancer and (B) MCF-7 human breast cancer cell lines were treated with mTOR inhibitors rapamycin (OVCAR-3 cells only) or RAD001 (MCF-7 cells only). Cell lysates were probed for phosphorylated and total Akt, and phosphorylated and total S6 at the indicated time points. […] Akt substrate FKHRL1, an apoptotic protein, was also detected.
(A) OVCAR-3 and (B) MCF-7 cells were treated with rapamycin (OVCAR-3 cells only), RAD001 (MCF-7 cells only), API-2, or a combination of API-2 with either rapamycin or RAD001. Akt phosphorylation increased in both cell lines after either rapamycin or RAD001 treatment.
Results of Western Blot for phosphorylated Akt (p-Akt) indicate C-13 and A2780CP cells had high levels of p-Akt. Further, cell survivability after chemotherapy appears directly connected to Akt up-regulation as C-13 had both the highest p-Akt and survivability. […] This caused an increase in p-Akt within 1 hour of treatment, confirming a relationship between p-Akt and cell survival after chemotherapy.

[3] = tested on: MCF-7 human breast cancer; test: Cell number growth over six days, MCF-7 cells; type: cell-based; conditions: MCF-7, 25 nM RAD001, 5 μM API-2 or combination
A2780CP cells [4] = conditions: drug individually or combination of both drugs
C-13 cells [5] = conditions: C-13, drug individually or combination of both drugs

SMILES: [Cl][Pt+2][Cl].[NH2-].[NH2-] [CDDP, cis-Diammine-dicholoroplatinum(II)]
- effect on cell survival (A2780CP cells [1]): no significant effect on cell survival
- effect on cell survival (C-13 cells [2]): no significant effect on cell survival

SMILES: CO[C@H]1C[C@@H]2CC[C@@H](C)[C@@](O)(O2)C(=O)C(=O)N2CCCC[C@H]2C(=O)O[C@H]([C@H](C)C[C@@H]2CC[C@@H](OCCO)[C@H](OC)C2)CC(=O)[C@H](C)/C=C(\C)[C@@H](O)[C@@H](OC)C(=O)[C@H](C)C[C@H](C)/C=C/C=C/C=C/1C [RAD001]
- Akt phosphorylation (Akt phosphorylation; MCF-7): increased with longer exposure time
- phosphorylated S6 (Akt phosphorylation; MCF-7, indicated time points): decreased with exposure
- cell growth (cell numbers) [3]: inhibited cell growth

SMILES: CC(=O)O[C@H]1C(=O)[C@@]2(C)[C@H]([C@H](OC(=O)c3ccccc3)[C@]3(O)C[C@H](OC(=O)[C@H](O)[C@@H](NC(=O)c4ccccc4)c4ccccc4)C(C)=C1C3(C)C)[C@]1(OC(C)=O)CO[C@@H]1C[C@@H]2O [Taxol]
- apoptosis (Capase-Glo 3/7) (A2780CP cells [4]): increased apoptosis slightly
- apoptosis (Capase-Glo 3/7) (C-13 cells [5]): increased apoptosis slightly
